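Dose response: 5 concentrations. Exposure: 48 h. Format: 96-well plates. Endpoint: linear interpolation; highest concentration if not reached. At the GI50, growth is halved.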 Active and inactive are the calls of the source. Rule as the data show it: active = GI50 up to about 1.1 µM and inactive = higher.
What was measured:
Test in all cases: growth of human tumour cells (NCI), 48 h
[1] = test system: PC-3
[2] = test system: TK-10
[3] = test system: UACC-62
[4] = test system: NCI-H460
[5] = test system: HT-29
[6] = test system: KM12
[7] = test system: SK-MEL-5
[8] = test system: Hs-578T
[9] = test system: MDA-N
[10] = test system: NCI-H522
[11] = test system: SK-MEL-2
[12] = test system: OVCAR-8
[13] = test system: DU-145
[14] = test system: UACC-257
[15] = test system: RXF 393
[16] = test system: MOLT-4
[17] = test system: SNB-75
[18] = test system: NCI-H226
[19] = test system: 786-0
[20] = test system: HCC 2998

| Structure (SMILES) | GI50 [1] | GI50 [2] | GI50 [3] | GI50 [4] | GI50 [5] | GI50 [6] | GI50 [7] | GI50 [8] | GI50 [9] | GI50 [10] | GI50 [11] | GI50 [12] | GI50 [13] | GI50 [14] | GI50 [15] | GI50 [16] | GI50 [17] | GI50 [18] | GI50 [19] | GI50 [20] |
| --- | --- | --- | --- | --- | --- | --- | --- | --- | --- | --- | --- | --- | --- | --- | --- | --- | --- | --- | --- | --- |
| CNC(=O)C1CCC(=O)N1CN(C(C)=O)c1ccccc1 (stereo unspecified) | > 100 µM (inactive) | > 100 µM (inactive) | > 100 µM (inactive) | > 100 µM (inactive) | > 100 µM (inactive) | > 100 µM (inactive) | > 100 µM (inactive) | > 100 µM (inactive) | > 100 µM (inactive) | > 100 µM (inactive) | > 100 µM (inactive) | > 100 µM (inactive) | > 100 µM (inactive) | > 100 µM (inactive) | > 100 µM (inactive) | > 100 µM (inactive) | > 100 µM (inactive) | > 100 µM (inactive) | > 100 µM (inactive) | – |
| COc1cc(Oc2nc3cc(F)c(F)cc3nc2-c2ccccc2)cc(OC)c1OC | 40.3 µM (inactive) | 68.2 µM (inactive) | 25.8 µM (inactive) | 63.8 µM (inactive) | 89.3 µM (inactive) | 35 µM (inactive) | 28.1 µM (inactive) | 38.7 µM (inactive) | > 100 µM (inactive) | 13.9 µM (inactive) | > 100 µM (inactive) | > 100 µM (inactive) | > 100 µM (inactive) | > 100 µM (inactive) | > 100 µM (inactive) | > 100 µM (inactive) | 20.4 µM (inactive) | 45.5 µM (inactive) | 30.5 µM (inactive) | – |
| CN(C)CCN1C(=O)CC[C@@]2(C)C1=CC[C@@H]1[C@@H]2CC[C@@]2(C)[C@H]1CC[C@]2(C)O | > 100 µM (inactive) | > 100 µM (inactive) | > 100 µM (inactive) | > 100 µM (inactive) | 39.8 µM (inactive) | > 100 µM (inactive) | > 100 µM (inactive) | > 100 µM (inactive) | > 100 µM (inactive) | > 100 µM (inactive) | > 100 µM (inactive) | > 100 µM (inactive) | > 100 µM (inactive) | > 100 µM (inactive) | > 100 µM (inactive) | > 100 µM (inactive) | > 100 µM (inactive) | > 100 µM (inactive) | > 100 µM (inactive) | – |
| CC(=O)Nc1ccc(S(=O)(=O)Nc2nc(-c3ccc(Cl)cc3)cc(N3N=C(c4ccc(Br)cc4)CC3c3ccccc3)n2)cc1 (stereo unspecified) | 14 µM (inactive) | 14 µM (inactive) | 12.6 µM (inactive) | 16.9 µM (inactive) | 15 µM (inactive) | 10.7 µM (inactive) | – | 11.1 µM (inactive) | 5.51 µM (inactive) | 14.8 µM (inactive) | 14.7 µM (inactive) | 17.9 µM (inactive) | 20.4 µM (inactive) | 17.5 µM (inactive) | 13.8 µM (inactive) | 17 µM (inactive) | – | 12.9 µM (inactive) | 18.8 µM (inactive) | – |
| Cc1c[n+]([O-])c2ccccc2[n+]1[O-] | > 100 µM (inactive) | > 100 µM (inactive) | > 100 µM (inactive) | > 100 µM (inactive) | > 100 µM (inactive) | > 100 µM (inactive) | > 100 µM (inactive) | > 100 µM (inactive) | > 100 µM (inactive) | > 100 µM (inactive) | > 100 µM (inactive) | > 100 µM (inactive) | > 100 µM (inactive) | > 100 µM (inactive) | > 100 µM (inactive) | > 100 µM (inactive) | > 100 µM (inactive) | – | > 100 µM (inactive) | – |
| CC1(CCCC2(C)CCNC2=O)OCCO1 (stereo unspecified) | > 10 µM (inactive) | > 10 µM (inactive) | > 10 µM (inactive) | > 10 µM (inactive) | > 10 µM (inactive) | > 10 µM (inactive) | > 10 µM (inactive) | > 10 µM (inactive) | > 10 µM (inactive) | – | > 10 µM (inactive) | > 10 µM (inactive) | > 10 µM (inactive) | > 10 µM (inactive) | > 10 µM (inactive) | > 10 µM (inactive) | > 10 µM (inactive) | > 10 µM (inactive) | > 10 µM (inactive) | > 10 µM (inactive) |
| C[n+]1c2ccccc2c(C(=O)Nc2ccc(S(=O)(=O)Nc3ncccn3)cc2)c2ccccc21 | 57 µM (inactive) | > 100 µM (inactive) | > 100 µM (inactive) | > 100 µM (inactive) | > 100 µM (inactive) | > 100 µM (inactive) | 58.9 µM (inactive) | > 100 µM (inactive) | 47.4 µM (inactive) | – | > 100 µM (inactive) | > 100 µM (inactive) | > 100 µM (inactive) | > 100 µM (inactive) | – | 25.8 µM (inactive) | 72.8 µM (inactive) | 37.4 µM (inactive) | > 100 µM (inactive) | > 100 µM (inactive) |
| COc1ccc(/C=C2\CN(C)Cc3c2nc(O)c(C#N)c3-c2ccc(OC)cc2)cc1 | 44.4 µM (inactive) | 43.4 µM (inactive) | > 100 µM (inactive) | 29.6 µM (inactive) | 38.5 µM (inactive) | 32.6 µM (inactive) | > 100 µM (inactive) | 35.1 µM (inactive) | 47.2 µM (inactive) | 48.8 µM (inactive) | 94 µM (inactive) | 31.3 µM (inactive) | 97.5 µM (inactive) | > 100 µM (inactive) | 24.3 µM (inactive) | 42 µM (inactive) | – | > 100 µM (inactive) | 18.2 µM (inactive) | – |
| ClC(Cl)(Cl)C(N1CCN(c2ccccc2)CC1)N1CCN(c2ccccc2)CC1 | > 100 µM (inactive) | > 100 µM (inactive) | > 100 µM (inactive) | > 100 µM (inactive) | > 100 µM (inactive) | > 100 µM (inactive) | > 100 µM (inactive) | > 100 µM (inactive) | > 100 µM (inactive) | > 100 µM (inactive) | > 100 µM (inactive) | > 100 µM (inactive) | > 100 µM (inactive) | > 100 µM (inactive) | > 100 µM (inactive) | > 100 µM (inactive) | > 100 µM (inactive) | > 100 µM (inactive) | > 100 µM (inactive) | – |
| NC(=O)c1ncn(C2C=CC(CP(=O)(O)O)C2)c1N (stereo unspecified) | > 100 µM (inactive) | > 100 µM (inactive) | > 100 µM (inactive) | > 100 µM (inactive) | > 100 µM (inactive) | > 100 µM (inactive) | > 100 µM (inactive) | > 100 µM (inactive) | > 100 µM (inactive) | – | > 100 µM (inactive) | > 100 µM (inactive) | > 100 µM (inactive) | > 100 µM (inactive) | > 100 µM (inactive) | > 100 µM (inactive) | > 100 µM (inactive) | > 100 µM (inactive) | > 100 µM (inactive) | > 100 µM (inactive) |
| Cc1ccc2c(=O)c(-c3nnsn3)c[nH]c2n1 | > 100 µM (inactive) | > 100 µM (inactive) | > 100 µM (inactive) | > 100 µM (inactive) | > 100 µM (inactive) | > 100 µM (inactive) | > 100 µM (inactive) | > 100 µM (inactive) | > 100 µM (inactive) | > 100 µM (inactive) | > 100 µM (inactive) | > 100 µM (inactive) | > 100 µM (inactive) | > 100 µM (inactive) | > 100 µM (inactive) | > 100 µM (inactive) | – | > 100 µM (inactive) | > 100 µM (inactive) | – |
| CC1(C)[C@@H]2CC[C@@]1(C)[C@@H]1O[C@@H](O[C@@H](CN)c3cc(Cl)c(OCc4ccccc4)c(OCc4ccccc4)c3)C[C@H]21 | 0.158 µM (active) | 0.177 µM (active) | – | – | 0.151 µM (active) | 0.169 µM (active) | 0.178 µM (active) | 0.187 µM (active) | 0.152 µM (active) | 0.186 µM (active) | 0.173 µM (active) | 0.189 µM (active) | 0.191 µM (active) | 0.175 µM (active) | 0.15 µM (active) | 0.16 µM (active) | 0.163 µM (active) | 0.184 µM (active) | 0.181 µM (active) | – |
| Cc1ccsc1/C=N/Nc1ccccn1 | 39.5 µM (inactive) | 57.3 µM (inactive) | 74 µM (inactive) | – | 32.8 µM (inactive) | 35.6 µM (inactive) | 25.9 µM (inactive) | > 100 µM (inactive) | 50.6 µM (inactive) | – | 34.3 µM (inactive) | 66.1 µM (inactive) | 55.6 µM (inactive) | 54.2 µM (inactive) | > 100 µM (inactive) | 32.8 µM (inactive) | 50.2 µM (inactive) | > 100 µM (inactive) | 68.5 µM (inactive) | 99.5 µM (inactive) |
| CCCCCCCCCCCCOc1ccc(/C=C/C2=[N+](CCCl)CCO2)cc1 | 58.1 µM (inactive) | 47.6 µM (inactive) | 93.3 µM (inactive) | 43.4 µM (inactive) | > 100 µM (inactive) | 38 µM (inactive) | 67 µM (inactive) | 56.6 µM (inactive) | 75.9 µM (inactive) | 17 µM (inactive) | > 100 µM (inactive) | 56.4 µM (inactive) | > 100 µM (inactive) | 63.2 µM (inactive) | – | 25 µM (inactive) | 45.5 µM (inactive) | > 100 µM (inactive) | 19.2 µM (inactive) | 39.1 µM (inactive) |
| Cc1n[n+](CC(=O)c2ccccc2)c2sc(N)nn12 | > 100 µM (inactive) | > 100 µM (inactive) | > 100 µM (inactive) | > 100 µM (inactive) | > 100 µM (inactive) | > 100 µM (inactive) | 72.3 µM (inactive) | > 100 µM (inactive) | > 100 µM (inactive) | > 100 µM (inactive) | > 100 µM (inactive) | > 100 µM (inactive) | > 100 µM (inactive) | > 100 µM (inactive) | > 100 µM (inactive) | > 100 µM (inactive) | > 100 µM (inactive) | > 100 µM (inactive) | > 100 µM (inactive) | – |

Reference: ChEMBL document CHEMBL1201862, “PubChem BioAssay data set” (2004)
